Results: patent US20260184712A1, “Heterocyclic Compounds as ENT Inhibitors and Compounds for Use in the Treatment of Cancers” (iTeos Belgium SA, priority 2022, published 2026)
pIC50: −log10 of the molar value.

These compounds were tested against T1, human ENT1 (Homo sapiens, UniProt Q99808) (assay: ENT1 binding assay (competition with Sahenta-DY647 on JAR cells)). Settings: competition with SAHENTA-DY647 binding; IC50 categorized; read-out: Binding Assay IC50.
T1 construct: JAR cells expressing ENT1 were purchased from ATCC; host or cells: JAR cells
T1 sequence (Q99808 1-456): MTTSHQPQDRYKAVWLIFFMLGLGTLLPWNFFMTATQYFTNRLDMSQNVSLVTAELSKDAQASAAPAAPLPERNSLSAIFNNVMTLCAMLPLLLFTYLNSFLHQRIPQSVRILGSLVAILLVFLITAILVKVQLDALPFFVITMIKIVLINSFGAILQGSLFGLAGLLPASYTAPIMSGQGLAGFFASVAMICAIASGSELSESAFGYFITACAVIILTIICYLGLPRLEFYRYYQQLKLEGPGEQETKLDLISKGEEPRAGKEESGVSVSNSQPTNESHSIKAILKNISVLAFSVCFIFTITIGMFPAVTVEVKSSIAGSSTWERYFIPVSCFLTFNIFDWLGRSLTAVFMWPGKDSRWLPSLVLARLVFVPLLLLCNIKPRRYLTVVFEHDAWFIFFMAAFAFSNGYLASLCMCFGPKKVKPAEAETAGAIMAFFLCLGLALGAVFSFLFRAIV
Outline: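 Whole-cell competition on JAR cells (native ENT1): 50,000 cells pre-incubated 30 min at 4 °C with compound in HBSS/10 mM Hepes/0.1% BSA, then 100 nM Sahenta-DY647 added for 30 min at 4 °C. After washing, fluorescence (Ex 630/Em 670 nm) read; IC50 from sigmoidal fit, averaged as pIC50.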

pIC50, 6.30 to 7.70:
C[C@H]1O[C@@H](n2c(NCC3CCOC3)nc3c(OCc4ccc(Cl)cc4)ncnc32)[C@H](O)[C@@H]1O (stereo partly drawn) [Compound 110]
O=[N+]([O-])c1ccc(CSc2ncnc3c2ncn3[C@@H]2O[C@H](CO)C[C@H]2O)cc1 [Compound 216]
C[C@H]1O[C@@H](n2c(NCc3ncn(C)n3)nc3c(OCc4ccc(C#N)cc4)ncnc32)[C@H](O)[C@@H]1O [Compound 69]
C[C@H]1O[C@@H](n2c(NCCN3CCCC3)nc3c(OCc4ccc([N+](=O)[O-])cc4)ncnc32)[C@H](O)[C@@H]1O [Compound 32]
C[C@H]1O[C@@H](n2cnc3c(OCc4ccc([N+](=O)[O-])nc4)ncnc32)[C@H](O)[C@@H]1O [Compound 205]

pIC50, 7.70 to 9.00:
C[C@H]1O[C@@H](n2c(N[C@H]3C[C@@](C)(O)C3)nc3c(OCc4ccc(OC(F)F)cc4)ncnc32)[C@H](O)[C@@H]1O [Compound 123]

pIC50, < 6.30:
C[C@H]1O[C@@H](n2cnc3c(OCc4ccc(-c5ccncc5)cc4)ncnc32)[C@H](O)[C@@H]1O [Compound 364]
C[C@H]1O[C@@H](n2cnc3c(SCc4cncc(C#N)c4)ncnc32)[C@H](O)[C@@H]1O [Compound 251]
C[C@H]1O[C@@H](n2cnc3c(OCc4ccc(N5CCCC5)cc4)ncnc32)[C@H](O)[C@@H]1O [Compound 377]
C[C@H]1O[C@@H](n2cnc3c(NCc4ccc(N5CCCC5=O)cc4)ncnc32)[C@H](O)[C@@H]1O [Compound 387]
C[C@H]1O[C@@H](n2cnc3c(NCc4ccc(OC5CCOCC5)cc4)ncnc32)[C@H](O)[C@@H]1O [Compound 389]
Cc1cc2cc(CNc3ncnc4c3ncn4[C@@H]3O[C@H](C)[C@@H](O)[C@H]3O)ccc2[nH]1 [Compound 339]
C[C@H]1O[C@@H](n2cnc3c(SCc4ccc(S(=O)(=O)N5CCCC5)cc4)ncnc32)[C@H](O)[C@@H]1O [Compound 391]
C[C@H]1O[C@@H](n2c(N(C)C3CCCC3)nc3c(OCc4ccc([N+](=O)[O-])cc4)ncnc32)[C@H](O)[C@@H]1O [Compound 1]
O=[N+]([O-])c1ccc(COc2ncnc3c2ncn3[C@@H]2O[C@H](CCO)[C@@H](O)[C@H]2O)cc1 [Compound 229]
C[C@H]1O[C@@H](n2cnc3c(C(=O)NCc4ccc([N+](=O)[O-])cc4)ncnc32)[C@H](O)[C@@H]1O [Compound 312]
C[C@H]1O[C@@H](n2cnc3c(NC(=O)c4ccc([N+](=O)[O-])cc4)ncnc32)[C@H](O)[C@@H]1O [Compound 412]
C[C@H]1O[C@@H](n2cnc3c(C(=O)NCc4ccc(C(F)(F)F)cc4)ncnc32)[C@H](O)[C@@H]1O [Compound 298]
C[C@H]1O[C@@H](n2cnc3c(C(=O)NCc4ccc(C#N)c(F)c4)ncnc32)[C@H](O)[C@@H]1O [Compound 369]
C[C@H]1O[C@@H](n2cnc3c(OCc4cscn4)ncnc32)[C@H](O)[C@@H]1O [Compound 321]
NC(=O)[C@H]1O[C@@H](n2cnc3c(SCc4ccc([N+](=O)[O-])cc4)ncnc32)[C@H](O)[C@@H]1O [Compound 243]
C[C@H]1O[C@@H](n2cnc3c(NCc4ccccc4C(N)=O)ncnc32)[C@H](O)[C@@H]1O [Compound 374]
C[C@H]1O[C@@H](n2cnc3c(OCc4ccc5c(c4)OCCO5)ncnc32)[C@H](O)[C@@H]1O [Compound 363]
C[C@H]1O[C@@H](n2cnc3c(C(=O)N4CCC4c4ccccc4)ncnc32)[C@H](O)[C@@H]1O (stereo partly drawn) [Compound 422]
C[C@H]1O[C@@H](n2cnc3c(COc4ccc(OCF)cc4)ncnc32)[C@H](O)[C@@H]1O [Compound 296]
Cc1cn(C2OC(C)C(O)C2O)c2ncnc(SCc3ccc([N+](=O)[O-])cc3)c12 (single isomer, unassigned) [Compound 286]
C[C@H]1O[C@@H](n2cnc3c(SCc4ncccn4)ncnc32)[C@H](O)[C@@H]1O [Compound 394]
